Results published in patent US12427131B2, “Stimulators and/or activators of soluble guanylate cyclase (sGC) in combination with an inhibitor of neutral endopeptidase (NEP inhibitor) and/or an angiotensin AII antagonist and the use thereof” (BAYER PHARMA AKTIENGESELLSCHAFT, priority 2015, dated 2025).

Key:
conscious rats = assay: Radiotelemetric measurement of blood pressure and heart rate of conscious rats; type: in vivo, rat
From the text: Radiotelemetric Measurement of Blood Pressure and Heart Rate of Conscious Rats
A commercially available telemetry system from Data Sciences International DSI, USA, was employed for the measurements on conscious rats (Wistar strain Unilever/WU or Spontaneous Hypertensive Rat/SHR) described below. The system consists of 3 main components: (1) implantable transmitters (PhysioTel® telemetry transmitter), (2) receivers (PhysioTel® receiver), which are linked via a multiplexer (DSI Data Exchange Matrix) to a (3) data acquisition computer. The telemetry system makes it possible to continuously record blood pressure, heart rate and body motion of conscious animals in their usual habitat.
The studies are conducted on adult female rats with a body weight of >200 g. After transmitter implantation, the experimental animals are housed singly in type III Makrolon® cages. They have free access to standard feed and water. The day/night rhythm in the test laboratory is set by changing the illumination of the room.
The telemetry transmitters used (e.g. PA-C40 HD-S10, DSI) are surgically implanted under aseptic conditions in the experimental animals at least 14 days before the first experimental use.
For the implantation, the fasted animals are anesthetized with isoflurane (IsoFlo®, Abbott, initiation 5%, maintenance 2%) and shaved and disinfected over a large area of their abdomens. After the abdominal cavity has been opened along the linea alba, the liquid-filled measuring catheter of the system is inserted into the descending aorta in the cranial direction above the bifurcation and fixed with tissue glue (Vetbond™, 3M). The transmitter housing is fixed intraperitoneally to the abdominal wall muscle, and the wound is closed layer by layer. Post-operatively, an antibiotic (Ursocyclin® 10%, 60 mg/kg s.c., 0.06 ml/100 g body weight, Serumwerk Bernburg AG, Germany) for infection prophylaxis and an analgesic (Rimadyl®, 4 mg/kg s.c., Pfizer, Germany) are administered.
Unless stated otherwise, the substances to be studied are administered orally to a group of animals in each case (n=6). In accordance with an administration volume of 2 ml/kg of body weight, the test substances are dissolved in suitable solvent mixtures. A solvent-treated group of animals is used as control.
The telemetry measuring system is configured for 24 animals.
Each of the instrumented rats living in the system is assigned a separate receiving antenna (RPC-1 Receiver, DSI). The implanted senders can be activated externally via an installed magnetic switch and are switched to transmission during the pre-run of the experiment. The signals emitted can be detected online by a data acquisition system (Dataquest™ A.R.T. for Windows, DSI or Ponemah, DSI) and processed accordingly.
In the standard procedure, the following are measured for 10-second periods in each case: (1) systolic blood pressure (SBP), (2) diastolic blood pressure (DBP), (3) mean arterial pressure (MAP), (4) heart rate (HR) and (5) activity (ACT). These parameters are measured over 24 hours after administration.
The acquisition of measurements is repeated under computer control at 5-minute intervals. The source data obtained as absolute values are corrected in the diagram with the currently measured barometric pressure (Ambient Pressure Reference Monitor, APR-1, DSI).
After the end of the experiment, the acquired individual data are sorted using the analysis software (Dataquest™ A.R.T. 4.1 Analysis or Ponemah, DSI). The 2 hour time point before substance administration is assumed as the blank value.
The data are smoothed over a presettable period by determination of the means (30 minute mean).

[1] = patients with heart failure, phase III; cited from earlier work
[2] = healthy subjects and hypertensive patients; cited from earlier work
[3] = compound of the formula (29) alone, oral 3 mg/kg
[4] = compound of the formula (29) alone, oral 10 mg/kg
[5] = compound of the formula (6) alone, oral 0.3 mg/kg

## C[C@H]([C@H](C(=O)Nc1cc(C(CC(=O)O)C2CC2)ccc1Cl)c1ccc(Cl)cc1)C(F)(F)F (stereo partly drawn) [formula (29), 3-(4-chloro-3-{[(2S,3R)-2-(4-chlorophenyl)-4,4,4-trifluoro-3-methylbutanoyl]amino}phenyl)-3-cyclopropylpropanoic acid]
Conscious rats; compound of the formula (29) alone, oral 1 mg/kg
  heart rate: reflex tachycardia
Conscious rats; [3]
  decrease in the mean arterial blood pressure: ca. −10%
  heart rate: associated reflex tachycardia
Conscious rats; [4]
  decrease in the mean arterial blood pressure: ~15%
  heart rate: associated reflex tachycardia

## trisodium [3-((1S,3R)-1-biphenyl-4-ylmethyl-3-ethoxycarbonyl-1-butylcarbamoyl)propionate-(S)-3′-methyl-2′-(pentanoyl{2″-(tetrazol-5-ylate)biphenyl-4′-ylmethyl}amino)butyrate] hemipentahydrate [LCZ696]
[1]
  risk of death and hospitalization: reduction in the risk of death and hospitalization
[2]
  ANP and cGMP: increase in ANP and cGMP
  renin and angiotensin: compensatory increase in renin and angiotensin

## COC(=O)Nc1c(N)nc(-c2nn(Cc3ccccc3F)c3ncc(F)cc23)nc1N [formula (6), methyl {4,6-diamino-2-[5-fluoro-1-(2-fluorobenzyl)-1H-pyrazolo[3,4-b]pyridine-3-yl]pyrimidin-5-yl}carbamate]
Conscious rats; [5]
  decrease in the mean arterial blood pressure: ca. −10%
  heart rate: transient increase in heart rate
Conscious rats; compound of the formula (6) alone, oral dose 0.1 mg/kg
  hemodynamic effects (blood pressure, heart rate): no hemodynamic effects
